Laboratory results taken from PubChem BioAssay (NCI).
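Exposure lasted 48 hours, with cells grown in 96-well plates and compounds tested at five concentrations. Definition used: TGI = concentration required for complete inhibition of growth.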

Assays:
Experiment in all cases: NCI tumour cell line growth inhibition, 48 h
[1] = test system: CCRF-CEM leukemia
[2] = test system: MDA-MB-231 breast
[3] = test system: MOLT-4 leukemia
[4] = test system: NCI-H226 lung
[5] = test system: OVCAR-4 ovarian
[6] = test system: UACC-257 melanoma
[7] = test system: DLD-1 colon
[8] = test system: DMS 114 small cell lung
[9] = test system: DMS 273 small cell lung
[10] = test system: HOP-18 NSCLC
[11] = test system: KM20L2 colon
[12] = test system: LXFL 529 NSCLC
[13] = test system: M19-MEL melanoma
[14] = test system: RXF-631 renal
[15] = test system: SNB-78 CNS
[16] = test system: XF 498 CNS

Row | SMILES | TGI [1] [µM] | TGI [2] [µM] | TGI [3] [µM] | TGI [4] [µM] | TGI [5] [µM] | TGI [6] [µM] | TGI [7] [µM] | TGI [8] [µM] | TGI [9] [µM] | TGI [10] [µM] | TGI [11] [µM] | TGI [12] [µM] | TGI [13] [µM] | TGI [14] [µM] | TGI [15] [µM] | TGI [16] [µM]
1 | NN/C(=N\S(=O)(=O)c1cc(S(=O)(=O)c2ccccc2)cs1)Nc1ccc(Cl)cc1 | 69.2 | > 100 | 56.2 | > 100 | 66.5 | 47.5 | – | – | – | – | – | – | – | – | – | –
2 | O=[N+]([O-])c1ccc(C2=NOC(c3ccccc3)N2C23CC4CC(CC(C4)C2)C3)cc1 (stereo not given) | 47.5 | > 100 | 37.8 | 89.9 | > 100 | > 100 | – | – | – | – | – | – | – | – | – | –
3 | C#CCNCC(=O)O | > 100 | > 100 | > 100 | > 100 | > 100 | > 100 | – | – | – | – | – | – | – | – | – | –
4 | Cc1cc(N(CCC#N)CCC#N)ccc1/C(Sc1ccccc1)=C(\NC(=O)/C=C/c1ccccc1)C(=O)Sc1ccccc1 | 15.3 | – | 8.27 | 10.7 | 18.6 | 25.9 | 9.95 | 4.53 | 26.2 | 51.1 | 8.09 | 12.6 | 14.7 | > 32.2 | 24.6 | 30.4
5 | COc1ccc(NCc2cccc3c(=O)c4ccc(Cl)cc4oc23)cc1 | > 100 | > 100 | > 100 | > 100 | > 100 | > 100 | – | – | – | – | – | – | – | – | – | –
6 | [N-]=[N+]=NC1(Cc2ccccc2)C(=O)Nc2ccccc2C1=O (stereo not given) | > 100 | – | > 100 | – | > 100 | > 100 | > 100 | > 100 | > 100 | > 100 | > 100 | > 100 | > 100 | – | > 100 | > 100
7 | Cc1ccc(N=NC(=O)NNc2ccc(C)cc2Br)c(Br)c1 | 21 | > 100 | 60.4 | 62.8 | > 100 | 79.8 | – | – | – | – | – | – | – | – | – | –
8 | COc1ccc(NC(=O)CSc2nc(C)nc3c2sc(=S)n3-c2ccccc2)cc1 | > 10 | > 10 | > 10 | > 10 | 9.29 | > 10 | – | – | – | – | – | – | – | – | – | –
9 | CN(C)/C=N/c1cc(=O)n(C)c(=O)n1C | > 100 | > 100 | > 100 | > 100 | > 100 | > 100 | – | – | – | – | – | – | – | – | – | –
10 | COC(=O)C1=C(C)NC(CF)=C(C(=O)OC)C1c1cccc2c(=O)c3ccccc3oc12 (stereo not given) | > 100 | > 100 | > 100 | > 100 | > 100 | > 100 | – | – | – | – | – | – | – | – | – | –
11 | COc1ccc(/C(=N/Nc2nc3ccccc3n2Cc2ccccc2)C(=O)O)cc1 | 27.8 | 80.2 | 79.6 | 63 | 62.2 | > 100 | – | – | – | – | – | – | – | – | – | –
12 | CC(C)=NC(C(=O)O)C(C)(C)S (stereo not given) | > 100 | > 100 | > 100 | > 100 | > 100 | > 100 | – | – | – | – | – | – | – | – | – | –
13 | COc1cc2c(SCCN(C)C)nc3ccccc3c2c2ccccc12 | 4.56 | 5.52 | 8.14 | 8.12 | 9.22 | 3.38 | – | – | – | – | – | – | – | – | – | –
14 | Cc1cc2c(cc1Cl)SC(NNC(=O)c1ccccc1)=NS2(=O)=O | > 10 | > 10 | > 10 | > 10 | > 10 | > 10 | – | – | – | – | – | – | – | – | – | –
